By IC50 is commonly meant the point on the concentration scale where inhibition reaches its midpoint.

The test system of test [1] is serum cholesterol, ovariectomized rats. The experiment in a line: Serum cholesterol in ovariectomized rats (4 days daily oral dosing). It is filed as in vivo, rat (female Sprague Dawley). Conditions: Rattus norvegicus, 96 h, read-out: Serum Cholesterol (% decrease vs. OVX); for inhibition in vivo at 0.1 mg/kg: 0.1 mg/kg PO; for inhibition in vivo at 1 mg/kg: 1.0 mg/kg PO; for inhibition in vivo at 10 mg/kg: 10.0 mg/kg PO. The method, then: (§1) In the examples illustrating the methods, a postmenopausal model was used in which effects of different treatments upon circulating lipids were determined.
(§2) Seventy-five day old female Sprague Dawley rats (weight range of 200 to 225 g) were obtained from Charles River Laboratories (Portage, Mich.). The animals were either bilaterally ovariectomized (OVX) or exposed to a Sham surgical procedure at Charles River Laboratories, and then shipped after one week. Upon arrival, they were housed in metal hanging cages in groups of 3 or 4 per cage and had ad libitum access to food (calcium content approximately 0.5%) and water for one week. Room temperature was maintained at 22.2°±1.70° C. with a minimum relative humidity of 40%. The photoperiod in the room was 12 hours light and 12 hours dark.
(§3) After a one week acclimation period (therefore, two weeks post-OVX) daily dosing with test compound was initiated. […] Animals were dosed daily for 4 days. Following the dosing regimen, animals were weighed and anesthetized with a ketamine: Xylazine (2:1, V:V) mixture and a blood sample was collected by cardiac puncture. The animals were then sacrificed by asphyxiation with CO2, the uterus was removed through a midline incision, and a wet uterine weight was determined.
Blood samples were allowed to clot at room temperature for 2 hours, and serum was obtained following centrifugation for 10 minutes at 3000 rpm. Serum cholesterol was determined using a Boehringer Mannheim Diagnostics high performance cholesterol assay. Briefly the cholesterol was oxidized to cholest-4-en-3-one and hydrogen peroxide. The hydrogen peroxide was then reacted with phenol and 4-aminophenazone in the presence of peroxidase to produce a p-quinone imine dye, which was read spectrophotemetrically at 500 nm. Cholesterol concentration was then calculated against a standard curve. The entire assay was automated using a Biomek Automated Workstation. […]
(§4) The data presented in Table 1 below reflects the response of 5 to 6 rats per treatment.

The test system of test [2] is Uterine Eosinophil Peroxidase (EPO). The test is described as follows: Uterine Eosinophil Peroxidase (EPO) Assay in ovariectomized rats. It is filed as in vivo, rat (female Sprague Dawley). Also noted: Uterine EPO (Vmax): unit not given here.
From the text: as §2, §3
Uteri were kept at 4° C. until time of enzymatic analysis. The uteri were then homogenized in 50 volumes of 50 mM Tris buffer (pH-8.0) containing 0.005% Triton X-100. Upon addition of 0.01% hydrogen peroxide and 10 mM O-phenylenediamine (final concentrations) in Tris buffer, increase in absorbance was monitored for one minute at 450 nm. The presence of eosonophils in the uterus is an indication of estrogenic activity of a compound. The maximal velocity of a 15 second interval was determined over the initial, linear portion of the reaction curve.
As is expressed in the data below, estrogenicity also was assessed by evaluating the adverse response of eosinophil infiltration into the uterus.
as §4

Test [3] concerns uterus, ovariectomized rats. The test is described as follows: Uterine weight in ovariectomized rats (4 days daily oral dosing). The class given is in vivo, rat (female Sprague Dawley). Conditions: Rattus norvegicus, 96 h, read-out: Uterine weight (% increase vs. OVX); for change in vivo at 0.1 mg/kg: 0.1 mg/kg PO; for change in vivo at 1 mg/kg: 1.0 mg/kg PO; for change in vivo at 10 mg/kg: 10.0 mg/kg PO. The procedure: as §1, §2, §3
This uterine response to estrogen is well recognized in the art.
as §4

In test [4] the test system is MCF-7 breast adenocarcinoma cells. The test is described as follows: MCF-7 Proliferation Assay (tritiated thymidine). It is filed as cell-based. The method, then:
MCF-7 breast adenocarcinoma cells (ATCC HTB 22) were maintained in MEM (minimal essential medium, phenol red-free, Sigma, St. Louis, Mo.) supplimented with 10% fetal bovine serum (FBS) (V/V), L-glutamine (2 mM), sodium pyruvate (1 mM), HEPES {(N-[2-hydroxyethyl]piperazine-N'-[2-ethanesulfonic acid]10 mM}, non-essential amino acids and bovine insulin (1 ug/mL) (maintenance medium). Ten days prior to assay, MCF-7 cells were switched to maintenance medium supplemented with 10% dextran coated charcoal stripped fetal bovine serum (DCC-FBS) assay medium) in place of 10% FBS to deplete internal stores of steroids. MCF-7 cells were removed from maintenance flasks using cell dissociation medium (Ca++/Mg++ free HBSS (phenol red-free) supplemented with 10 mM HEPES and 2 mM EDTA). Cells were washed twice with assay medium and adjusted to 80,000 cells/mL. Approximately […] (8,000 cells) were added to flat-bottom microculture wells (Costar 3596) and incubated at 37° C. in a 5% CO2 humidified incubator for 48 hours to allow for cell adherence and equilibration after transfer. Serial dilutions of drugs or DMSO as a diluent control were prepared in assay medium and […] to triplicate microcultures followed by […] assay medium for a final volume of […]. After an additional 48 hours at 37° C. in a 5% CO2 humidified incubator, microcultures were pulsed with tritiated thymidine (1 uCi/well) for 4 hours. Cultures were terminated by freezing at -70° C. for 24 hours followed by thawing and harvesting of microcultures using a Skatron Semiautomatic Cell Harvester. Samples were counted by liquid scintillation using a Wallac BetaPlace b counter. Results in Table 4 below show the IC50 for certain compounds of the instant invention. […]

The mark [5] stands for this setting: Homo sapiens, MCF7, 48 hours, read-out: IC50.

Structures are written as SMILES. Like-named read-outs stand apart in the source and are kept apart here.

Consider `O=C(c1ccc(OCCN2CCCCC2)cc1)c1c(-c2cccc(F)c2)sc2cc(O)ccc12` [Example 22, [2-(3-Fluorophenyl)-6-hydroxybenzothien-3-yl] [4-[2-(1-piperidinyl)ethoxy]phenyl]methanone], for which, in test [1], the inhibition in vivo at 0.1 mg/kg was 18.6%, the inhibition in vivo at 1 mg/kg turned out to be 62% and the inhibition in vivo at 10 mg/kg came to 67.3%. The “Uterine EPO (Vmax)” value in test [2] (0.1 mg/kg PO) is on record as 4.8. Moreover, in test [2] (1.0 mg/kg PO), the “Uterine EPO (Vmax)” value stood at 7.8. Further, the “Uterine EPO (Vmax)” value in test [2] (10.0 mg/kg PO) amounted to 12.0. Also, in test [3], the change in vivo at 0.1 mg/kg is 53.2%, the change in vivo at 1 mg/kg is 62.8% and the change in vivo at 10 mg/kg amounted to 26.9%. In addition, in test [4] (setting [5]), the IC50 was 2.5 nM.

As for `O=C(c1ccc(OCCN2CCCCC2)cc1)c1c(-c2ccc(C(F)(F)F)cc2)sc2cc(O)ccc12` [Example 20, [2-(4-Trifluoromethylphenyl)-6-hydroxybenzo[b]thien-3-yl][4-[2-(1-piperidinyl)ethoxy]phenyl]methanone], the inhibition in vivo at 0.1 mg/kg in test [1] came to 45.5%. In addition, the inhibition in vivo at 1 mg/kg in test [1] was 47.9%. Besides, in test [1] (5.0 mg/kg PO), the inhibition in vivo at 5 mg/kg was determined as 71.5%. The “Uterine EPO (Vmax)” value in test [2] (0.1 mg/kg PO) is 1.8; in test [2] (1.0 mg/kg PO) it was 7; in test [2] (5.0 mg/kg PO) it was 16.4. The change in vivo at 0.1 mg/kg in test [3] is -2%. The change in vivo at 1 mg/kg in test [3] was 7%. Moreover, the change in vivo at 5 mg/kg in test [3] (5.0 mg/kg PO) was determined as 37.4%. Further, in test [4] (setting [5]), the IC50 turned out to be 1000 nM.

For the compound `COc1cc(O)ccc1-c1sc2cc(O)ccc2c1C(=O)c1ccc(OCCN2CCCCC2)cc1` [Example 18, [2-(4-Hydroxy-2-methoxyphenyl)-6-hydroxybenzo[b]thien-3-yl] [4-[2-(1-piperidinyl)ethoxy]phenyl]methanone], in test [1], the inhibition in vivo at 0.1 mg/kg was determined as 58.8%, the inhibition in vivo at 1 mg/kg was found to be 79% and the inhibition in vivo at 10 mg/kg stood at 71.6%. The “Uterine EPO (Vmax)” value in test [2] (0.1 mg/kg PO) was 34.2. Besides, the “Uterine EPO (Vmax)” value in test [2] (1.0 mg/kg PO) was found to be 81.9. Moreover, the “Uterine EPO (Vmax)” value in test [2] (10.0 mg/kg PO) was found to be 135.9. Besides, in test [3], the change in vivo at 0.1 mg/kg was 64.1%, the change in vivo at 1 mg/kg was 69.2% and the change in vivo at 10 mg/kg amounted to 73.3%. Besides, the IC50 in test [4] (setting [5]) was determined as 2 nM.

With `COc1ccc2c(C(=O)c3ccc(OCCN4CCCCC4)cc3)c(-c3ccc(OC)c(OC)c3)sc2c1` [Example 8, [2-(3,4-Dimethoxyphenyl)-6-methoxybenzo[b]thien-3-yl][4-[2-(1-piperidinyl)ethoxy]phenyl]methanone], in test [1], the inhibition in vivo at 0.1 mg/kg is 24.8%, the inhibition in vivo at 1 mg/kg worked out at 57.8% and the inhibition in vivo at 10 mg/kg was determined as 60.8%. For the same compound, the “Uterine EPO (Vmax)” value in test [2] (0.1 mg/kg PO) stood at 1.3. Also, in test [2] (1.0 mg/kg PO), the “Uterine EPO (Vmax)” value came out at 4.4. In addition, in test [2] (10.0 mg/kg PO), the “Uterine EPO (Vmax)” value came out at 11.2. Moreover, in test [3], the change in vivo at 0.1 mg/kg is -8.3%, the change in vivo at 1 mg/kg came out at 23.4% and the change in vivo at 10 mg/kg worked out at 24.1%.

Turning to `Cc1ccccc1-c1sc2cc(O)ccc2c1C(=O)c1ccc(OCCN2CCCCC2)cc1` [Example 23, [2-(2-Methylphenyl)-6-hydroxybenzo[b]thien-3-yl] [4-[2-(1-piperidinyl)ethoxy]phenyl]methanone], in test [1], the inhibition in vivo at 0.1 mg/kg was found to be 31.7%, the inhibition in vivo at 1 mg/kg is 38.6% and the inhibition in vivo at 10 mg/kg was 29.3%. For the same compound, in test [2] (0.1 mg/kg PO), the “Uterine EPO (Vmax)” value is given as 12.0. For the same compound, the “Uterine EPO (Vmax)” value in test [2] (1.0 mg/kg PO) is 8.4. The “Uterine EPO (Vmax)” value in test [2] (10.0 mg/kg PO) came to 8.1. Besides, in test [3], the change in vivo at 0.1 mg/kg came to 8.5%, the change in vivo at 1 mg/kg is 12% and the change in vivo at 10 mg/kg amounted to 10.9%. The IC50 in test [4] (setting [5]) amounted to 0.7 nM.

In the case of `O=C(c1ccc(OCCN2CCCCC2)cc1)c1c(-c2ccc(O)c(Cl)c2)sc2cc(O)ccc12` [Example 5, [2-(3-Chloro-4-hydroxyphenyl)-6-hydroxybenzo[b]thien-3-yl][4-[2-(1-piperidinyl)ethoxy]phenyl]methanone], in test [1], the inhibition in vivo at 0.1 mg/kg is 18.6%, the inhibition in vivo at 1 mg/kg was 52.6% and the inhibition in vivo at 10 mg/kg is 71.5%. Also, in test [2] (0.1 mg/kg PO), the “Uterine EPO (Vmax)” value stood at 1.2. Besides, the “Uterine EPO (Vmax)” value in test [2] (1.0 mg/kg PO) was 2.4. Besides, the “Uterine EPO (Vmax)” value in test [2] (10.0 mg/kg PO) was found to be 1.3. Moreover, in test [3], the change in vivo at 0.1 mg/kg is -22.6%, the change in vivo at 1 mg/kg was 20.7% and the change in vivo at 10 mg/kg was found to be 30.2%. Moreover, the IC50 in test [4] (setting [5]) was 2.3 nM.

As to `COc1ccc2c(C(=O)c3ccc(OCCN4CCCCC4)cc3)c(-c3ccc(C(F)(F)F)cc3)sc2c1` [Example 19, [2-(4-Trifluoromethylphenyl)-6-methoxybenzo[b]thien-3-yl][4-[2-(1-piperidinyl)ethoxy]phenyl]methanone], in test [1], the inhibition in vivo at 0.1 mg/kg was 22.3%, the inhibition in vivo at 1 mg/kg came to 3.1% and the inhibition in vivo at 10 mg/kg was 20.6%. The “Uterine EPO (Vmax)” value in test [2] (0.1 mg/kg PO) came to 6.8. Moreover, in test [2] (1.0 mg/kg PO), the “Uterine EPO (Vmax)” value worked out at 4.3. Further, in test [2] (10.0 mg/kg PO), the “Uterine EPO (Vmax)” value came to 4. In test [3], the change in vivo at 0.1 mg/kg is 10.3%, the change in vivo at 1 mg/kg turned out to be 15.6% and the change in vivo at 10 mg/kg turned out to be 16.6%. In addition, the IC50 entry in test [4] (48 hours) is on record as “Not active”.

With `O=C(Oc1cccc(-c2sc3cc(OC(=O)c4ccccc4)ccc3c2C(=O)c2ccc(OCCN3CCCCC3)cc2)c1)c1ccccc1` [Example 13, [2-(3-Benzoyloxyphenyl)-6-benzoyloxybenzo[b]thien-3-yl][4-[2-(1-piperidinyl)ethoxy]phenyl]methanone], in test [1], the inhibition in vivo at 0.1 mg/kg worked out at 25.3%, the inhibition in vivo at 1 mg/kg turned out to be 45.7% and the inhibition in vivo at 10 mg/kg stood at 61.4%. Further, the “Uterine EPO (Vmax)” value in test [2] (0.1 mg/kg PO) worked out at 3.0. Moreover, in test [2] (1.0 mg/kg PO), the “Uterine EPO (Vmax)” value is on record as 6.0. Also, the “Uterine EPO (Vmax)” value in test [2] (10.0 mg/kg PO) is on record as 8.4. In test [3], the change in vivo at 0.1 mg/kg is -18.6%, the change in vivo at 1 mg/kg turned out to be 34.7% and the change in vivo at 10 mg/kg stood at 27.6%.

For the compound `C[C@]12CC[C@@H]3c4ccc(O)cc4CC[C@H]3[C@@H]1CC[C@@H]2O` [estradiol, reference compound], the “eosinophil infiltration into the uterus (in words)” value in test [2] (stromal layer of ovariectomized rats) is “substantial, expected increase in eosinophil infiltration”.

(Values after patent US5998442A, “Benzo [B] thiophene compounds, and compositions for treating bone loss, and hyperlipidemia” (Eli Lilly and Company, priority 1997, dated 1999).)
